Common to all, as to assay type: in vivo
For test [1], the system named is Kochia (Kochia scoparia). The test can be described thus: Test A preemergence. To be noted: Bassia scoparia, pre-emergence, 240 h; for pest or weed control at 125 g/ha: 125 g ai/ha, preemergence, 0 to 100 scale where 0 is no effect and 100 is complete control, read-out: Kochia plant response rating; for pest or weed control at 500 g/ha: 500 g ai/ha, Preemergence, visual injury vs untreated controls after approximately 10 d, read-out: Kochia plant response rating (0 to 100 scale where 0 is no effect and 100 is complete control). Summed up: (§1)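 Seeds sprayed preemergence with a directed soil spray, or plants at 2 to 10 cm height and one- to two-leaf stage sprayed postemergence, with test chemicals in a non-phytotoxic solvent mixture containing surfactant, in loam soil–sand blend. Injury rated visually against untreated controls after about 10 d in greenhouse, 0 (no effect) to 100 (complete control).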

Test [2] relates to barnyardgrass (Echinochloa crus-galli). The test can be described thus: Test A preemergence. To be noted: Echinochloa crus-galli, pre-emergence, 240 h; for pest or weed control at 125 g/ha: 125 g ai/ha, preemergence, 0 to 100 scale where 0 is no effect and 100 is complete control, read-out: Barnyardgrass plant response rating; for pest or weed control at 500 g/ha: 500 g ai/ha, Preemergence, visual injury vs untreated controls after approximately 10 d, read-out: Barnyardgrass plant response rating (0 to 100 scale where 0 is no effect and 100 is complete control). Summed up: as §1

The test system of test [3] is giant foxtail (Setaria faberii). The test can be described thus: Test A preemergence. To be noted: Setaria faberi, pre-emergence, 240 h; for pest or weed control at 125 g/ha: 125 g ai/ha, preemergence, 0 to 100 scale where 0 is no effect and 100 is complete control, read-out: Foxtail, Giant plant response rating; for pest or weed control at 500 g/ha: 500 g ai/ha, Preemergence, visual injury vs untreated controls after approximately 10 d, read-out: Foxtail, Giant plant response rating (0 to 100 scale where 0 is no effect and 100 is complete control). The method, boiled down:
as §1

The test system of test [4] is pigweed (Amaranthus retroflexus). The test is described as follows: Test A preemergence. To be noted: Amaranthus retroflexus, pre-emergence, 240 h; for pest or weed control at 125 g/ha: 125 g ai/ha, preemergence, 0 to 100 scale where 0 is no effect and 100 is complete control, read-out: Pigweed plant response rating; for pest or weed control at 500 g/ha: 500 g ai/ha, Preemergence, visual injury vs untreated controls after approximately 10 d, read-out: Pigweed plant response rating (0 to 100 scale where 0 is no effect and 100 is complete control).

The test system of test [5] is ragweed (common ragweed, Ambrosia elatior). The test is described as follows: Test A preemergence. To be noted: Ambrosia artemisiifolia, pre-emergence, 240 h; for pest or weed control at 125 g/ha: 125 g ai/ha, preemergence, 0 to 100 scale where 0 is no effect and 100 is complete control, read-out: Ragweed plant response rating; for pest or weed control at 500 g/ha: 500 g ai/ha, Preemergence, visual injury vs untreated controls after approximately 10 d, read-out: Ragweed plant response rating (0 to 100 scale where 0 is no effect and 100 is complete control). The method, boiled down:
as §1

Test [6] has as its system ryegrass, Italian (Italian ryegrass, Lolium multiflorum). The test can be described thus: Test A preemergence. To be noted: Lolium multiflorum, pre-emergence, 240 h; for pest or weed control at 125 g/ha: 125 g ai/ha, preemergence, 0 to 100 scale where 0 is no effect and 100 is complete control, read-out: Ryegrass, Italian plant response rating; for pest or weed control at 500 g/ha: 500 g ai/ha, Preemergence, visual injury vs untreated controls after approximately 10 d, read-out: Ryegrass, Italian plant response rating (0 to 100 scale where 0 is no effect and 100 is complete control). Summed up:
as §1

The test system of test [7] is Kochia (Kochia scoparia). The test is described as follows: Test A postemergence. To be noted: Bassia scoparia, post-emergence, 240 h, 125 g ai/ha. Summed up:
as §1

Test [8] has as its system barnyardgrass (Echinochloa crus-galli). The test is described as follows: Test A postemergence. To be noted: Echinochloa crus-galli, post-emergence, 240 h, 125 g ai/ha. Summed up:
as §1

Test [9] has as its system Galium (catchweed bedstraw, Galium aparine). The test can be described thus: Test A postemergence. To be noted: Galium, post-emergence, 240 h, 125 g ai/ha. Summed up: as §1
The subject of the next test is corn (Zea mays). The test is described as follows: Test A postemergence. To be noted: Zea mays, post-emergence, 240 h, 125 g ai/ha; for plant injury at 125 g/ha: postemergence, visual injury rating after approximately 10 d, read-out: Corn plant response rating (0 to 100 scale, 0 no effect, 100 complete control). Summed up: as §1
Test [10] relates to giant foxtail (Setaria faberii). The test can be described thus: Test A postemergence. To be noted: Setaria faberi, post-emergence, 240 h, 125 g ai/ha. Summed up: as §1
Test [11] has as its system pigweed (Amaranthus retroflexus). The test is described as follows: Test A postemergence. To be noted: Amaranthus retroflexus, post-emergence, 240 h, 125 g ai/ha. Summed up: as §1
The subject of test [12] is ragweed (common ragweed, Ambrosia elatior). The test is described as follows: Test A postemergence. To be noted: Ambrosia artemisiifolia, post-emergence, 240 h, 125 g ai/ha. Summed up:
as §1

The subject of test [13] is wheat (Triticum aestivum). The test is described as follows: Test A postemergence. To be noted: Triticum aestivum, post-emergence, 240 h, 125 g ai/ha. The method, boiled down:
as §1

The subject of test [14] is ryegrass, Italian (Italian ryegrass, Lolium multiflorum). The test can be described thus: Test A postemergence. To be noted: Lolium multiflorum, post-emergence, 240 h, 125 g ai/ha. Summed up: as §1
[15] abbreviates: postemergence, visual injury rating after approximately 10 d, read-out: Kochia plant response rating (0 to 100 scale, 0 no effect, 100 complete control).
Where [16] appears, read: postemergence, visual injury rating after approximately 10 d, read-out: Barnyardgrass plant response rating (0 to 100 scale, 0 no effect, 100 complete control).
Setting [17] is: postemergence, visual injury rating after approximately 10 d, read-out: Galium plant response rating (0 to 100 scale, 0 no effect, 100 complete control).
[18] abbreviates: postemergence, visual injury rating after approximately 10 d, read-out: Foxtail, Giant plant response rating (0 to 100 scale, 0 no effect, 100 complete control).
[19] abbreviates: postemergence, visual injury rating after approximately 10 d, read-out: Pigweed plant response rating (0 to 100 scale, 0 no effect, 100 complete control).
The mark [20] stands for this setting: postemergence, visual injury rating after approximately 10 d, read-out: Ragweed plant response rating (0 to 100 scale, 0 no effect, 100 complete control).
The mark [21] stands for this setting: postemergence, visual injury rating after approximately 10 d, read-out: Wheat plant response rating (0 to 100 scale, 0 no effect, 100 complete control).
The mark [22] stands for this setting: postemergence, visual injury rating after approximately 10 d, read-out: Ryegrass, Italian plant response rating (0 to 100 scale, 0 no effect, 100 complete control).

Read-outs that look alike come from different tables or passages of the source.

On to `Cc1c(F)cccc1NC(=O)[C@H]1C(=O)N(C)C[C@@H]1c1cccc(COC(F)F)c1` [Compound 874], for which the pest or weed control at 125 g/ha in the test on Kochia (Kochia scoparia) [1] was 60%; in test [2] it was 90%; in test [3], 90%; in test [4], 20%; in test [5], 20%; in test [6], 40%. Besides, the pest or weed control at 125 g/ha in the test with Kochia (Kochia scoparia) [7] (setting [15]) came out at 20%; in test [8] (setting [16]) it was 90%; in test [9] (setting [17]) it was 20%; in [10] (setting [18]), 90%; in test [11] (setting [19]), 0%; in test [12] (setting [20]) it was 20%. In test [14] (setting [22]), the pest or weed control at 125 g/ha was 20%. In addition, the pest or weed control at 500 g/ha in the test with Kochia (Kochia scoparia) [1] was 90%; in [2], 100%; in [3], 100%; in [4], 30%; in test [5], 60%; in test [6] it was 50%. In addition, the plant injury at 125 g/ha was found to be 50% with corn (Zea mays) and 20% in test [13] (setting [21]).

As to `CCOc1ccc([C@H]2CN(C)C(=O)[C@@H]2C(=O)Nc2ccc(F)cc2F)cc1` [Compound 905], the pest or weed control at 125 g/ha in the test with Kochia (Kochia scoparia) [1] came to 10%; in [2] it was 70%; in test [3] it was 90%; in [4], 0%; in test [5], 0%; in test [6], 0%. Also, the pest or weed control at 125 g/ha came to 0% in the test with Kochia (Kochia scoparia) [7] (setting [15]); 70% in test [8] (setting [16]); 0% in test [9] (setting [17]); 60% in [10] (setting [18]); 0% in [11] (setting [19]); 0% in [12] (setting [20]). Further, the pest or weed control at 125 g/ha in [14] (setting [22]) stood at 0%. Besides, the pest or weed control at 500 g/ha was found to be 90% in the test on Kochia (Kochia scoparia) [1]; 90% in test [2]; 90% in test [3]; 0% in test [4]; 0% in [5]; 0% in [6]. For the same compound, the plant injury at 125 g/ha (in the test with corn (Zea mays); in [13] (setting [21])) was 0% throughout.

Regarding `CN1C[C@H](c2ccc(C(F)(F)F)cc2)[C@@H](C(=O)Nc2ccccc2[S+](C)[O-])C1=O` (stereo partly drawn) [Compound 915], the pest or weed control at 125 g/ha in the test on Kochia (Kochia scoparia) [1] was 80%; in [2], 100%; in test [3] it was 90%; in test [4] it was 80%; in [5], 80%; in [6] it was 40%. Moreover, the pest or weed control at 125 g/ha in the test with Kochia (Kochia scoparia) [7] (Postemergence, visual injury after approximately 10 d, 0 to 100 scale where 0 is no effect and 100 is complete control, read-out: Plant response rating, Kochia) turned out to be 20%; in test [8] (Postemergence, visual injury after approximately 10 d, 0 to 100 scale where 0 is no effect and 100 is complete control, read-out: Plant response rating, Barnyardgrass), 90%; in test [9] (Postemergence, visual injury after approximately 10 d, 0 to 100 scale where 0 is no effect and 100 is complete control, read-out: Plant response rating, Galium) it was 50%; in [10] (Postemergence, visual injury after approximately 10 d, 0 to 100 scale where 0 is no effect and 100 is complete control, read-out: Plant response rating, Foxtail, Giant), 90%; in test [11] (Postemergence, visual injury after approximately 10 d, 0 to 100 scale where 0 is no effect and 100 is complete control, read-out: Plant response rating, Pigweed), 60%; in [12] (Postemergence, visual injury after approximately 10 d, 0 to 100 scale where 0 is no effect and 100 is complete control, read-out: Plant response rating, Ragweed), 30%. Also, in test [14] (Postemergence, visual injury after approximately 10 d, 0 to 100 scale where 0 is no effect and 100 is complete control, read-out: Plant response rating, Ryegrass, Italian), the pest or weed control at 125 g/ha came to 30%. The pest or weed control at 500 g/ha in the test with Kochia (Kochia scoparia) [1] amounted to 90%; in test [2] it was 100%; in test [3], 100%; in [4], 90%; in test [5], 90%; in [6], 70%. This compound gave a Corn plant response rating (crop injury, 0 = no effect, 100 = complete kill) at 125 g/ha in the test with corn (Zea mays) (Postemergence, visual injury after approximately 10 d, 0 to 100 scale where 0 is no effect and 100 is complete control) of 0%. Also, the plant injury at 125 g/ha in test [13] (Postemergence, visual injury after approximately 10 d, 0 to 100 scale where 0 is no effect and 100 is complete control, read-out: Plant response rating, Wheat) turned out to be 40%.

Turning to `COc1c(F)ccc([C@H]2CNC(=O)[C@@H]2C(=O)Nc2ccccc2C(F)(F)F)c1Cl` [Compound 891], the pest or weed control at 125 g/ha with Kochia (Kochia scoparia) [1] was 0%; in [2], 60%; in [3], 80%; in test [4], 0%; in test [5], 0%; in test [6], 0%. The pest or weed control at 125 g/ha in the test with Kochia (Kochia scoparia) [7] (setting [15]) turned out to be 0%; in [8] (setting [16]) it was 50%; in test [9] (setting [17]), 30%; in test [10] (setting [18]), 40%; in test [11] (setting [19]), 0%; in test [12] (setting [20]), 0%. In addition, in test [14] (setting [22]), the pest or weed control at 125 g/ha stood at 0%. The pest or weed control at 500 g/ha in the test with Kochia (Kochia scoparia) [1] was 20%; in [2] it was 80%; in [3], 90%; in test [4], 0%; in test [5] it was 0%; in test [6], 30%. Further, the results for the plant injury at 125 g/ha (in the test with corn (Zea mays); in [13] (setting [21])) were 20% and 0%, respectively.

Source of the values: patent publication US12077503B2, “Substituted cyclic amides and their use as herbicides” (FMC CORPORATION, priority 2015, dated 2024).
